Assay results taken from ChEMBL document CHEMBL1158875, “Plakinidine D, a new pyrroloacridine alkaloid from two ascidians of the genus Didemnum” (J Nat Prod, 1997).
Active and inactive are the calls of the source. The rule behind the calls is not given here.

System: HCT-116
Assay: Cytotoxicity against human HCT116 cells at 5 ug/mL
Type: functional, cell-based

For `Nc1c2c(c3nc4ccccc4c4c3c1N=C4)NCCC2=O`, the Activity was “Active”.
